Blank lines part the entries; values can stand above or below the molecule they belong to. Calls of active or inactive are those of the source. The rule behind the calls is not given here.
Columns and labels:
[1] = molecular target: Dual specificity calcium/calmodulin-dependent 3',5'-cyclic nucleotide phosphodiesterase 1C (Homo sapiens, UniProt Q14123); test: Inhibition of PDE1C (147 to 531 residues) (unknown origin) using 3H-cGMP as substrate incubated for 15 mins by liquid scintillation counter analysis
[2] = Metabolic stability in rat liver microsomes assessed as half life
[3] = molecular target: High affinity cGMP-specific 3',5'-cyclic phosphodiesterase 9A (Homo sapiens, UniProt O76083); test: Inhibition of PDE9A (181 to 506 residues) (unknown origin) using 3H-cGMP as substrate incubated for 15 mins by liquid scintillation counter analysis
[4] = molecular target: cGMP-dependent 3',5'-cyclic phosphodiesterase (Homo sapiens, UniProt O00408); test: Inhibition of PDE2A (580 to 919 residues) (unknown origin) using 3H-cGMP as substrate incubated for 15 mins by liquid scintillation counter analysis
[5] = molecular target: 3',5'-cyclic-AMP phosphodiesterase 4D (Homo sapiens, UniProt Q08499); test: Inhibition of PDE4D (86 to 413 residues) (unknown origin) using 3H-cAMP as substrate incubated for 15 mins by liquid scintillation counter analysis
[6] = molecular target: High affinity 3',5'-cyclic-AMP phosphodiesterase 7A (Homo sapiens, UniProt Q13946); test: Inhibition of PDE7A (130 to 482 residues) (unknown origin) using 3H-cAMP as substrate incubated for 15 mins by liquid scintillation counter analysis
RAW264.7 [7] = test: Anti-inflammatory activity in mouse RAW264.7 cells assessed as reduction in LPS-induced IL-1alpha mRNA expression at 5 to 10 uM incubated for 24 hrs by qPCR analysis; format: functional, cell-based; conditions: dose 5-10 µM
Mus musculus [8] = test: Anti-inflammatory bowel disease activity in DSS-induced inflammatory bowel disease C57BL/6 mouse model assessed as reduction in histological inflammation in colon at 5 mg/kg,ip BID for 7 days by Hematoxylin and eosin staining based microscopy; format: functional, organism-based; conditions: time 7.0 day
RAW264.7 [9] = test: Anti-inflammatory activity in mouse RAW264.7 cells assessed as reduction in LPS-induced TNF-alpha mRNA expression at 5 to 10 uM incubated for 24 hrs by qPCR analysis; format: functional, cell-based; conditions: dose 5-10 µM
[10] = molecular target: High affinity cAMP-specific and IBMX-insensitive 3',5'-cyclic phosphodiesterase 8A (Homo sapiens, UniProt O60658); test: Inhibition of PDE8A (480 to 820 residues) (unknown origin) using 3H-cAMP as substrate incubated for 15 mins by liquid scintillation counter analysis
RAW264.7 [11] = test: Anti-inflammatory activity in mouse RAW264.7 cells assessed as reduction in LPS-induced NO release at 5 to 10 uM incubated for 24 hrs by Griess method; format: functional, cell-based; conditions: dose 5-10 µM
[12] = molecular target: cGMP-specific 3',5'-cyclic phosphodiesterase (Homo sapiens, UniProt O76074); test: Inhibition of PDE5A1 (535 to 860 residues) (unknown origin) using 3H-cGMP as substrate incubated for 15 mins by liquid scintillation counter analysis
RAW264.7 [13] = test: Anti-inflammatory activity in mouse RAW264.7 cells assessed as reduction in LPS-induced iNOS mRNA expression at 5 to 10 uM incubated for 24 hrs by qPCR analysis; format: functional, cell-based; conditions: dose 5-10 µM
Mus musculus [14] = test: Anti-inflammatory bowel disease activity in DSS-induced inflammatory bowel disease C57BL/6 mouse model assessed as decrease in diarrhoea by measuring disease activity index score at 5 mg/kg,ip BID for 7 days; format: functional, organism-based; conditions: time 7.0 day
Mus musculus [15] = test: Anti-inflammatory bowel disease activity in DSS-induced inflammatory bowel disease C57BL/6 mouse model assessed as decrease in fecal occult blood by measuring disease activity index score at 5 mg/kg,ip BID for 7 days; format: functional, organism-based; conditions: time 7.0 day
Mus musculus [16] = test: Anti-inflammatory bowel disease activity in DSS-induced inflammatory bowel disease C57BL/6 mouse model assessed as decrease in body weight loss by measuring disease activity index score at 5 mg/kg,ip BID for 7 days; format: functional, organism-based; conditions: time 7.0 day
RAW264.7 [17] = test: Anti-inflammatory activity in mouse RAW264.7 cells assessed as reduction in LPS-induced IL-6 mRNA expression at 5 to 10 uM incubated for 24 hrs by qPCR analysis; format: functional, cell-based; conditions: dose 5-10 µM
Mus musculus [18] = test: Anti-inflammatory bowel disease activity in DSS-induced inflammatory bowel disease C57BL/6 mouse model assessed as protection of colon crypt structures at 5 mg/kg,ip BID for 7 days by Hematoxylin and eosin staining based microscopy; format: functional, organism-based; conditions: time 7.0 day
[19] = molecular target: cAMP and cAMP-inhibited cGMP 3',5'-cyclic phosphodiesterase 10A (Homo sapiens, UniProt Q9Y233); test: Inhibition of PDE10A (449 to 770 residues) (unknown origin) using 3H-cAMP as substrate incubated for 15 mins by liquid scintillation counter analysis
[20] = molecular target: cGMP-inhibited 3',5'-cyclic phosphodiesterase 3A (Homo sapiens, UniProt Q14432); test: Inhibition of PDE3A (679 to 1087 residues) (unknown origin) using 3H-cAMP as substrate incubated for 15 mins by liquid scintillation counter analysis
RAW264.7 [21] = test: Anti-inflammatory activity in mouse RAW264.7 cells assessed as reduction in LPS-induced IL-1beta mRNA expression at 5 to 10 uM incubated for 24 hrs by qPCR analysis; format: functional, cell-based; conditions: dose 5-10 µM
Mus musculus [22] = test: Anti-inflammatory bowel disease activity in DSS-induced inflammatory bowel disease C57BL/6 mouse model assessed as increase in colon length at 5 mg/kg,ip BID for 7 days by vernier calipers analysis; format: functional, organism-based; conditions: time 7.0 day
Mus musculus [23] = test: Anti-inflammatory bowel disease activity in DSS-induced inflammatory bowel disease C57BL/6 mouse model assessed as decrease in diarrhoea by measuring disease activity index score at 25 mg/kg,ip BID for 7 days; format: functional, organism-based; conditions: time 7.0 day
Mus musculus [24] = test: Anti-inflammatory bowel disease activity in DSS-induced inflammatory bowel disease C57BL/6 mouse model assessed as increase in colon length at 25 mg/kg,ip BID for 7 days by vernier calipers analysis; format: functional, organism-based; conditions: time 7.0 day
[25] = Toxicity in DSS-induced inflammatory bowel disease C57BL/6 mouse model assessed as body weight change at 25 mg/kg,ip BID for 7 days; format: organism-based; conditions: in vivo, 168 h, time 7 day
Mus musculus [26] = test: Anti-inflammatory bowel disease activity in DSS-induced inflammatory bowel disease C57BL/6 mouse model assessed as decrease in body weight loss by measuring disease activity index score at 25 mg/kg,ip BID for 7 days; format: functional, organism-based; conditions: time 7.0 day
Mus musculus [27] = test: Anti-inflammatory bowel disease activity in DSS-induced inflammatory bowel disease C57BL/6 mouse model assessed as decrease in fecal occult blood by measuring disease activity index score at 25 mg/kg,ip BID for 7 days by Hemo-occult test; format: functional, organism-based; conditions: time 7.0 day

Chain of High affinity cGMP-specific 3',5'-cyclic phosphodiesterase 9A (O76083 whole entry, the tested form may be a part): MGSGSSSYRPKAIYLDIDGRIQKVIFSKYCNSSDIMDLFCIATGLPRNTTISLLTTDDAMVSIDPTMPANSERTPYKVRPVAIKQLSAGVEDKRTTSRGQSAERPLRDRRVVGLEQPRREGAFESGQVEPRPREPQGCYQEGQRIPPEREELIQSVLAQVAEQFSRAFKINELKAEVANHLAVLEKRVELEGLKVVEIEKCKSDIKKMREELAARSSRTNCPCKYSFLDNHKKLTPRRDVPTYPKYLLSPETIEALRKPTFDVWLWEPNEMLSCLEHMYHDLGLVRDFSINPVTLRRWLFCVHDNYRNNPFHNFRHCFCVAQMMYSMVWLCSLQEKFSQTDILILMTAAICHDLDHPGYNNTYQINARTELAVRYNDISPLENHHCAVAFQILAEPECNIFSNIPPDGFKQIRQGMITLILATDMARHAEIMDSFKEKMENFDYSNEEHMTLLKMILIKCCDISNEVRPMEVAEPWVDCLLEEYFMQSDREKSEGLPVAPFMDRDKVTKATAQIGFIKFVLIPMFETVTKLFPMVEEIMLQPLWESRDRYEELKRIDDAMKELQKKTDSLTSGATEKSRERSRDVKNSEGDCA
Chain of Dual specificity calcium/calmodulin-dependent 3',5'-cyclic nucleotide phosphodiesterase 1C (Q14123 whole entry, the tested form may be a part): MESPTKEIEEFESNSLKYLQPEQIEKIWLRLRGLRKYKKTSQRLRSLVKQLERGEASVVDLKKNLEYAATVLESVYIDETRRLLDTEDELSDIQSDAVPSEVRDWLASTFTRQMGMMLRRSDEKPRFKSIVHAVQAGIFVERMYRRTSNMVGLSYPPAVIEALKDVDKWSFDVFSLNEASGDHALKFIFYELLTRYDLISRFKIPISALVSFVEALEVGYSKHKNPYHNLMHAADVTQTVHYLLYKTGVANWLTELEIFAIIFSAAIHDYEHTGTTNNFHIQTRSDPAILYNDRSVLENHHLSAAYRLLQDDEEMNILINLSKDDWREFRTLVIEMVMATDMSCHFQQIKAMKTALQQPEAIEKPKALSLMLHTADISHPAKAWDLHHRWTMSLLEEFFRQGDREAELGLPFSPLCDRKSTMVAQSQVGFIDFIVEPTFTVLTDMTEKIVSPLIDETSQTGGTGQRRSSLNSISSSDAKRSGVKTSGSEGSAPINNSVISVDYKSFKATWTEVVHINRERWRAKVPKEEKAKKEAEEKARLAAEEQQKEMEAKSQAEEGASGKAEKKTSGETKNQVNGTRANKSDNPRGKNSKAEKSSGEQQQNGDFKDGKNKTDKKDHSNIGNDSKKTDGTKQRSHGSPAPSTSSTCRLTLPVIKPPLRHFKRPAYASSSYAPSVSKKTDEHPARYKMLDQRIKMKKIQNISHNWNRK
Chain of High affinity cAMP-specific and IBMX-insensitive 3',5'-cyclic phosphodiesterase 8A (O60658 whole entry, the tested form may be a part): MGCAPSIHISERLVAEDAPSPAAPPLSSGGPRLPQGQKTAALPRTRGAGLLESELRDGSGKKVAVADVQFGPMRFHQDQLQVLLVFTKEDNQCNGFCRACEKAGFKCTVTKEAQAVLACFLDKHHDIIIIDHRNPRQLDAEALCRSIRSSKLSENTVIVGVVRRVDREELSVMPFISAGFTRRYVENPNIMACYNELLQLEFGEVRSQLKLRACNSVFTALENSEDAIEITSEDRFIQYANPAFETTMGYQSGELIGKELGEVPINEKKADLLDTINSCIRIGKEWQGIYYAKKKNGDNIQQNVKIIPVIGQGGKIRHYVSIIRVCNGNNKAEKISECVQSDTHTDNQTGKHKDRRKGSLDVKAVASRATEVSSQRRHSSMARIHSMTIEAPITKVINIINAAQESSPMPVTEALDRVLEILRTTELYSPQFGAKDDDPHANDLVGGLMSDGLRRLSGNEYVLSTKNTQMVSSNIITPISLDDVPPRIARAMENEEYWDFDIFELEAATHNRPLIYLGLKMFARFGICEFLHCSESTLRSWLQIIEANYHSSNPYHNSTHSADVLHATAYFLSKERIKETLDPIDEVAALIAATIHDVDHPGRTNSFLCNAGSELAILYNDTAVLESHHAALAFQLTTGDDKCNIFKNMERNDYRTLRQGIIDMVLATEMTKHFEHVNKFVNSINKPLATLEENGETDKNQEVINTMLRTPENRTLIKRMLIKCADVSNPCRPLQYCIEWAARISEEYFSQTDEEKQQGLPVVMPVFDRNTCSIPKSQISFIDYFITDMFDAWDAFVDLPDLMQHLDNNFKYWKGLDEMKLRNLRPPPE
Chain of High affinity 3',5'-cyclic-AMP phosphodiesterase 7A (Q13946 whole entry, the tested form may be a part): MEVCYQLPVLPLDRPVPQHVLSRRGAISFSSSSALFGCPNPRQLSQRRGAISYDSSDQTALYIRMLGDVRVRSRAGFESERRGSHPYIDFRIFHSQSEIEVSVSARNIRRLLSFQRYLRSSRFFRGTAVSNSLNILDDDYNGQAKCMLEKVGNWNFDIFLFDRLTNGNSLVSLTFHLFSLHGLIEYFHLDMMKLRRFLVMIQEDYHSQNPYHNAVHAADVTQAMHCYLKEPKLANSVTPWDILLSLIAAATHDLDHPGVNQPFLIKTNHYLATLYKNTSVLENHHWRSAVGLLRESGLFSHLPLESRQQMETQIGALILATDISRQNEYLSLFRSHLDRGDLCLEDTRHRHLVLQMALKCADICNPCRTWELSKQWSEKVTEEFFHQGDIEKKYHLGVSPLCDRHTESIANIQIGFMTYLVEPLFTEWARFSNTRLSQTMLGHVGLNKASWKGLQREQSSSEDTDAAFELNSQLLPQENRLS
Chain of 3',5'-cyclic-AMP phosphodiesterase 4D (Q08499 whole entry, the tested form may be a part): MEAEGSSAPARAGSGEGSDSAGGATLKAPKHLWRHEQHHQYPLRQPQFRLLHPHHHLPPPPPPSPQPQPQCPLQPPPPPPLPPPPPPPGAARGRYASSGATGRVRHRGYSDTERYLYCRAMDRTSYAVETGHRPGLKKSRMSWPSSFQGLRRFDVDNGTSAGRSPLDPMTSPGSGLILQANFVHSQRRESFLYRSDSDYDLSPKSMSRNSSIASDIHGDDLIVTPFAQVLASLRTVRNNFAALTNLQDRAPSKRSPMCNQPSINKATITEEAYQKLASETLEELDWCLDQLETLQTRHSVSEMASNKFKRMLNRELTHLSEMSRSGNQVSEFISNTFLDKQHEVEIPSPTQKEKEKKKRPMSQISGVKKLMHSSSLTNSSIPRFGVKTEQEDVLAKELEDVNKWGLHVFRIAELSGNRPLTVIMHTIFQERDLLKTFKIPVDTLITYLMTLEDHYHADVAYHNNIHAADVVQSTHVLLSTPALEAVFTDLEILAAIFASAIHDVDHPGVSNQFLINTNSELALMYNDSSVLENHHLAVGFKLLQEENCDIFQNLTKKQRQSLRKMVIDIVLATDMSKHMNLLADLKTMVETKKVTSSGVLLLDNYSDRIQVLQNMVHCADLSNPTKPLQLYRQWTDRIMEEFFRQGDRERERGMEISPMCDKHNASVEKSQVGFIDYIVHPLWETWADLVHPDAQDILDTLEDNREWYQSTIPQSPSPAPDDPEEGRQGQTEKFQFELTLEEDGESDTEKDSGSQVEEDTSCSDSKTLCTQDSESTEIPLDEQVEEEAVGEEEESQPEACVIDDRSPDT
Chain of cGMP-dependent 3',5'-cyclic phosphodiesterase (O00408 whole entry, the tested form may be a part): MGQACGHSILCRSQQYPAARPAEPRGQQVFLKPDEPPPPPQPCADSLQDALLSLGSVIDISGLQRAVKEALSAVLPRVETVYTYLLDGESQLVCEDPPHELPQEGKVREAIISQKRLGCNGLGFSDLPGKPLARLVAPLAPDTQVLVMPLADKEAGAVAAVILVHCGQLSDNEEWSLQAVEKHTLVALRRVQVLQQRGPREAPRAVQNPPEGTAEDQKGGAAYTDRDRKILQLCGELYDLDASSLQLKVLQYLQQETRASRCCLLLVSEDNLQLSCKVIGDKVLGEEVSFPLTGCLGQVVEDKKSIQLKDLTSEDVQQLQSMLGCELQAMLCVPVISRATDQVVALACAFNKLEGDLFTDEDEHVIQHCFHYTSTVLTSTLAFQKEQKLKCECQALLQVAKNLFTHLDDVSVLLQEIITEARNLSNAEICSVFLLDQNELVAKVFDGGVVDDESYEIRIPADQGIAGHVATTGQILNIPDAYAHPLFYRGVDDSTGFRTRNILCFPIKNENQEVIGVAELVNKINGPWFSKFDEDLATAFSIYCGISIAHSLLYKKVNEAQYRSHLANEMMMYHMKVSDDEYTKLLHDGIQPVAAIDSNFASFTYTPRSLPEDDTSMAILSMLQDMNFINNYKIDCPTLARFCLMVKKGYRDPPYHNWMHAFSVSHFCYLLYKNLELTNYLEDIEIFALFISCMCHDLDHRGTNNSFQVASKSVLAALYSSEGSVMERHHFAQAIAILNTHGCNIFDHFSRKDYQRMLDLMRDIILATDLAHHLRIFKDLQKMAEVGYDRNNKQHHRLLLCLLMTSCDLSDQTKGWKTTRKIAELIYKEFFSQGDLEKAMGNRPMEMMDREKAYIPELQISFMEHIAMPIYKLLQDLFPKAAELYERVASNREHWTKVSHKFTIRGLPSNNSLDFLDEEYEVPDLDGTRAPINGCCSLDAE

Compound: CCCCCn1c(=O)c(C#N)c(-c2ccc(C)cc2)c2ccc(NC(C)c3ccccn3)cc21 (configuration not stated)
IC50 [1]: > 1000 nM

Compound: C[C@H](Nc1ccc2c(C3CCCC3)c(C#N)c(=O)n(CC3CCCC3)c2c1)c1ccccn1
IC50 [1]: 16 nM

Compound: N#Cc1c(C2CCCC2)c2ccc(NCc3ccc(F)cn3)cc2n(CC2CCCC2)c1=O
half-life [2]: 1.6 min
IC50 [3]: > 10000 nM
IC50 [4]: > 10000 nM
IC50 [5]: 610 nM
IC50 [6]: 2300 nM
Activity (RAW264.7 [7]): Dose-Dependent Effect
Activity (Mus musculus [8]): Active
Activity (RAW264.7 [9]): Dose-Dependent Effect
IC50 [10]: > 10000 nM
Activity (RAW264.7 [11]): Dose-Dependent Effect
IC50 [12]: 2180 nM
Activity (RAW264.7 [13]): Dose-Dependent Effect
Activity (Mus musculus [14]): Active
Activity (Mus musculus [15]): Active
Activity (Mus musculus [16]): Active
Activity (RAW264.7 [17]): Dose-Dependent Effect
Activity (Mus musculus [18]): Active
IC50 [19]: 3030 nM
IC50 [1]: 15 nM
IC50 [20]: > 10000 nM
Activity (RAW264.7 [21]): Dose-Dependent Effect
Activity (Mus musculus [22]): Active

Compound: Cc1ccc(-c2c(C#N)c(=O)n(Cc3ccccc3)c3cc(NC(C)c4ccccn4)ccc23)cc1 (configuration not stated)
IC50 [1]: 15 nM

Compound: CC(Nc1ccc2c(C(C)(C)C)c(C#N)c(=O)n(Cc3ccccc3)c2c1)c1ccccn1 (configuration not stated)
IC50 [1]: 83 nM

Compound: N#Cc1c(C2CCCC2)c2ccc(NCC3CCOCC3)cc2n(CC2CCCC2)c1=O
IC50 [1]: > 1000 nM

Compound: CC(Nc1ccc2c(C3CCCC3)c(C#N)c(=O)n(Cc3ccccc3)c2c1)c1ccccn1 (configuration not stated)
IC50 [1]: 20 nM

Compound: Cc1ccc(-c2c(C#N)c(=O)n(CC3CCCC3)c3cc(NC(C)c4ccccn4)ccc23)cc1 (configuration not stated)
IC50 [1]: 25 nM

Compound: Cc1ccc(-c2c(C#N)c(=O)n(Cc3ccccc3)c3ccccc23)cc1
IC50 [3]: 5830 nM
IC50 [1]: 48 nM

Compound: OCCN(CCO)c1nc(N2CCCCC2)c2nc(N(CCO)CCO)nc(N3CCCCC3)c2n1 [DIPYRIDAMOLE]
Activity (Mus musculus [23]): Active
Activity (Mus musculus [24]): Active
Activity [25]: Toxic
Activity (Mus musculus [26]): Active
Activity (Mus musculus [27]): Active

The next lines start with the values.

IC50 [1]: > 1000 nM
Compound: Cc1ccc(-c2c(C#N)c(=O)n(Cc3ccccc3)c3c(NC(C)c4ccccn4)cccc23)cc1 (configuration not stated)

IC50 [1]: 19 nM
Compound: CC(Nc1ccc2c(C3CCCC3)c(C#N)c(=O)n(CC3CCCC3)c2c1)c1ccccn1 (configuration not stated)

IC50 [1]: > 1000 nM
Compound: Cc1ccc(-c2c(C#N)c(=O)n(Cc3ccncc3)c3cc(NC(C)c4ccccn4)ccc23)cc1 (configuration not stated)

IC50 [1]: > 1000 nM
Compound: CCCCNc1ccc2c(-c3ccc(C)cc3)c(C#N)c(=O)n(Cc3ccccc3)c2c1

IC50 [3]: 8.9 nM
IC50 [1]: 450 nM
Compound: Cc1ccc(-c2c(C#N)c(=O)[nH]c3ccccc23)cc1

IC50 [1]: 22 nM
Compound: CC(C)c1c(C#N)c(=O)n(Cc2ccccc2)c2cc(NC(C)c3ccccn3)ccc12 (configuration not stated)

IC50 [1]: 55 nM
Compound: Cc1ccc(-c2c(C#N)c(=O)n(Cc3ccccc3)c3cc(NC(C)c4ccccc4)ccc23)cc1 (configuration not stated)

IC50 [1]: 218 nM
Compound: CC(Nc1ccc2c(C3CC3)c(C#N)c(=O)n(Cc3ccccc3)c2c1)c1ccccn1 (configuration not stated)

IC50 [1]: 38 nM
Compound: C[C@@H](Nc1ccc2c(C3CCCC3)c(C#N)c(=O)n(CC3CCCC3)c2c1)c1ccccn1

IC50 [1]: 24 nM
Compound: Cc1ccc(-c2c(C#N)c(=O)n(Cc3ccccc3)c3ccc(NC(C)c4ccccn4)cc23)cc1 (configuration not stated)
